Source: patent US11377436B2, “EAAT2 enhancing molecules” (THE BRIGHAM AND WOMEN'S HOSPITAL, INC., priority 2017, dated 2022)

system: EAAT2; test: In vivo assay in wild-type mice, EAAT2 protein levels in forebrain gliosomes by Western blot; conditions: C57BL/6J mice, 40 mg/kg oral gavage, relative to vehicle controls
Procedure: In vivo assay in wild-type mice. Example compounds that were capable of increasing EAAT2 protein expression in cultured astrocytes were further evaluated in C57BL/6J mice. Mice were treated by oral gavage with the compound at 40 mg/kg. At 24 hr post-treatment, mice were euthanized and forebrains were harvested for the gliosome preparation (Dunkley et al., Nat Protoc 3, 1718-1728). Gliosomes are enriched with astrocytic processes, and majority of EAAT2 is localized in astrocytic processes (gliosomes). EAAT2 protein levels in gliosomes were determined by Western blot analysis.

SMILES	In vivo - fold increase for EAAT2 in mouse forebrain at 24 hr post treatment (40 mg/kg by PO)
O=C(Nc1ccc(-c2ccccn2)cn1)c1ccccc1 [Example 3, N-([2,3′-bipyridin]-6′-yl)benzamide]	1.42 fold
O=C(Nc1ccc(-c2ccccn2)nc1)c1ccccc1 [Example 18, N-([2,2′-bipyridin]-5-yl)benzamide]	1.56 fold
O=C(Nc1ccc(-c2ccccn2)nc1)c1ccc(F)cc1 [Example 19, N-([2,2′-bipyridin]-5-yl)-4-fluorobenzamide]	1.41 fold
COc1ccc(C(=O)Nc2ccc(-c3ccccn3)nc2)cc1 [Example 21, N-([2,2′-bipyridin]-5-yl)-4-methoxybenzamide]	1.34 fold
O=C(Nc1ccc(-c2ccccn2)nc1)c1ccc(Cl)cc1 [Example 22, N-([2,2′-bipyridin]-5-yl)-4-chlorobenzamide]	1.20 fold
O=C(Nc1ccc(-c2ccccn2)nc1)c1cccc(Cl)c1 [Example 23, N-([2,2′-bipyridin]-5-yl)-3-chlorobenzamide]	1.45 fold
O=C(Nc1cnc(-c2ccccn2)cn1)c1ccccc1 [Example 33, N-(5-(pyridin-2-yl)pyrazin-2-yl)benzamide]	no increase
O=C(Nc1ncc(-c2ccccn2)cn1)c1ccccc1 [Example 48, N-(5-(pyridin-2-yl)pyrimidin-2-yl)benzamide]	1.45 fold
O=C(Nc1cnc(-c2ccccn2)nc1)c1ccccc1 [Example 63, N-(2-(pyridin-2-yl)pyrimidin-5-yl)benzamide]	no increase
CN(C)CCOc1ccc(-c2ccccn2)cn1 [Example 94, 2-([2,3′-bipyridin]-6′-yloxy)-N,N-dimethylethan-1-amine]	1.49 fold
CN(C)CCOc1cnc(-c2ccccn2)cn1 [Example 136, N,N-dimethyl-2-((5-(pyridin-2-yl)pyrazin-2-yl)oxy)ethan-1-amine]	no increase
CN(C)CCOc1ncc(-c2ccccn2)cn1 [Example 157, N,N-dimethyl-2-((5-(pyridin-2-yl)pyrimidin-2-yl)oxy)ethan-1-amine]	1.37 fold

system: human EAAT2; test: In vitro assay in primary astrocyte cultures (PA-EAAT2 cells), EAAT2 protein levels by Western blot; type: cell-based; conditions: PA-EAAT2 cells treated 24 hr at 0.25-25 μM; relative to DMSO controls; value at the concentration that reaches maximum activity
Procedure: In vitro assay in primary astrocyte cultures. Example compounds were initially evaluated in PA-EAAT2 cells, a primary astrocyte stably expressing human EAAT2 mRNAs (Kong et al., J Clin Invest. 124:1255-67). Cells were treated with the example compounds at 0.25 μM, 0.5 μM, 1 μM, 2.5 μM, 5 μM, 10 μM, and 25 μM for 24 hr and then harvested for measuring EAAT2 protein levels by Western blot analysis.

SMILES	In vitro - fold increase for EAAT2 in cultured astrocytes at indicated concentration (maximum activity)
O=C(Nc1ccc(-c2ccccn2)cn1)c1ccccc1 [Example 3, N-([2,3′-bipyridin]-6′-yl)benzamide]	1.68 fold
O=C(Nc1ccc(-c2ccccn2)nc1)c1ccccc1 [Example 18, N-([2,2′-bipyridin]-5-yl)benzamide]	2.45 fold
O=C(Nc1ccc(-c2ccccn2)nc1)c1ccc(F)cc1 [Example 19, N-([2,2′-bipyridin]-5-yl)-4-fluorobenzamide]	1.97 fold
COc1ccc(C(=O)Nc2ccc(-c3ccccn3)nc2)cc1 [Example 21, N-([2,2′-bipyridin]-5-yl)-4-methoxybenzamide]	1.73 fold
O=C(Nc1ccc(-c2ccccn2)nc1)c1ccc(Cl)cc1 [Example 22, N-([2,2′-bipyridin]-5-yl)-4-chlorobenzamide]	1.64 fold
O=C(Nc1ccc(-c2ccccn2)nc1)c1cccc(Cl)c1 [Example 23, N-([2,2′-bipyridin]-5-yl)-3-chlorobenzamide]	1.84 fold
O=C(Nc1cnc(-c2ccccn2)cn1)c1ccccc1 [Example 33, N-(5-(pyridin-2-yl)pyrazin-2-yl)benzamide]	no increase
O=C(Nc1ncc(-c2ccccn2)cn1)c1ccccc1 [Example 48, N-(5-(pyridin-2-yl)pyrimidin-2-yl)benzamide]	1.58 fold
O=C(Nc1cnc(-c2ccccn2)nc1)c1ccccc1 [Example 63, N-(2-(pyridin-2-yl)pyrimidin-5-yl)benzamide]	1.32 fold
CN(C)CCOc1ccc(-c2ccccn2)cn1 [Example 94, 2-([2,3′-bipyridin]-6′-yloxy)-N,N-dimethylethan-1-amine]	1.51 fold
CN(C)CCOc1cnc(-c2ccccn2)cn1 [Example 136, N,N-dimethyl-2-((5-(pyridin-2-yl)pyrazin-2-yl)oxy)ethan-1-amine]	no increase
CN(C)CCOc1ncc(-c2ccccn2)cn1 [Example 157, N,N-dimethyl-2-((5-(pyridin-2-yl)pyrimidin-2-yl)oxy)ethan-1-amine]	1.54 fold

same assay, conditions: PA-EAAT2 cells, 24 hr; tested at 0.25, 0.5, 1, 2.5, 5, 10 and 25 μM

SMILES	indicated concentration that reaches maximum activity (EAAT2 increase in cultured astrocytes)
O=C(Nc1ccc(-c2ccccn2)cn1)c1ccccc1 [Example 3, N-([2,3′-bipyridin]-6′-yl)benzamide]	(5 μM)
O=C(Nc1ccc(-c2ccccn2)nc1)c1ccccc1 [Example 18, N-([2,2′-bipyridin]-5-yl)benzamide]	(1 μM)
O=C(Nc1ccc(-c2ccccn2)nc1)c1ccc(F)cc1 [Example 19, N-([2,2′-bipyridin]-5-yl)-4-fluorobenzamide]	(1 μM)
COc1ccc(C(=O)Nc2ccc(-c3ccccn3)nc2)cc1 [Example 21, N-([2,2′-bipyridin]-5-yl)-4-methoxybenzamide]	(0.5 μM)
O=C(Nc1ccc(-c2ccccn2)nc1)c1ccc(Cl)cc1 [Example 22, N-([2,2′-bipyridin]-5-yl)-4-chlorobenzamide]	(0.5 μM)
O=C(Nc1ccc(-c2ccccn2)nc1)c1cccc(Cl)c1 [Example 23, N-([2,2′-bipyridin]-5-yl)-3-chlorobenzamide]	(2.5 μM)
O=C(Nc1ncc(-c2ccccn2)cn1)c1ccccc1 [Example 48, N-(5-(pyridin-2-yl)pyrimidin-2-yl)benzamide]	(2.5 μM)
O=C(Nc1cnc(-c2ccccn2)nc1)c1ccccc1 [Example 63, N-(2-(pyridin-2-yl)pyrimidin-5-yl)benzamide]	(5 μM)
CN(C)CCOc1ccc(-c2ccccn2)cn1 [Example 94, 2-([2,3′-bipyridin]-6′-yloxy)-N,N-dimethylethan-1-amine]	(5 μM)
CN(C)CCOc1ncc(-c2ccccn2)cn1 [Example 157, N,N-dimethyl-2-((5-(pyridin-2-yl)pyrimidin-2-yl)oxy)ethan-1-amine]	(1 μM)
